Like-named read-outs stand apart in the source and are kept apart here.
How the values were obtained:
[1] = system: Clostridium acetobutylicum ATCC 824 (wild type); settings: 3 days, 37° C.
Procedure: (§1) But-R/1 mutant (ATCC No. PTA-8515), a derivative of C. acetobutylicum ATCC 824, was produced via long-term incubation of wild-type C. acetobutylicum 824 in reinforced Clostridium medium (“RCM”) with glucose (0.5%) and butanol (2.5% v/v) under anaerobic conditions at 37° C. When turbidity developed, the bacterial suspension was spread onto RCM agar with 2.5% butanol. […] Mutants were purified twice using RCM agar containing 2.5% of butanol. […] Cells were grown for 3 days in RCM medium in an anaerobic jar at 37° C. Optical density of cell suspensions was measured at 600 nm spectrophotometrically.

[2] = system: BUT-R/1 mutant (ATCC No. PTA-8515); settings: 3 days, 37° C.
Procedure: as §1

[3] = system: omrA/pCR-II TOPO/TOP10 E. coli cells
Procedure: Survival rates of E. coli strains with and without the omrA-plasmid were determined. […] For this experiment, the omrA gene was inserted into the expression plasmid pCR-Blunt II-TOPO (invitrogen, Carlsbad, Calif.) hosted by the TOP10 E. coli strain [F-mcrA Δ (mcr-hsdRMS-mcrBC) Φ)80lacZ ΔM15 ΔlacX74 recA1 deoR araD139 Δ (ara-leu)7697 galU galK rpsL (Str^R) endA1 nupG]. The plasmid with no insertion was used as a control. Flasks (50 ml) containing 10 ml of LB broth with 50 μg/ml kanamycin were inoculated with 100 μl of bacterial cells grown overnight at 37° C. in the same medium and incubated at 37° C. with aeration (200 rpm) for 4 hours. Bacterial growth was stopped by adding chloramphenicol (100 μg/ml) and optical density of cell cultures measured spectrophotometrically at 600 nm.

Substance: butanol
- Growth inhibition, WT ([1]; butanol 0.3 % (v/v)): 8.4
- Growth inhibition, WT ([1]; butanol 0.6 % (v/v)): 40.4
- Growth inhibition, WT ([1]; butanol 0.9 % (v/v)): 56.1
- Growth inhibition, WT ([1]; butanol 1.2 % (v/v)): 89.7
- Growth inhibition, WT ([1]; butanol 1.5 % (v/v)): 94.2
- Growth inhibition, WT ([1]; butanol 1.8 % (v/v)): 99.5
- Growth inhibition, Mutant ([2]; butanol 0.3 % (v/v)): 0
- Growth inhibition, Mutant ([2]; butanol 0.6 % (v/v)): 0
- Growth inhibition, Mutant ([2]; butanol 0.9 % (v/v)): 0
- Growth inhibition, Mutant ([2]; butanol 1.2 % (v/v)): 23.2
- Growth inhibition, Mutant ([2]; butanol 1.5 % (v/v)): 73.8
- Growth inhibition, Mutant ([2]; butanol 1.8 % (v/v)): 84.2
- resistance to butanol compared with E. coli TOPO10 host cells ([3]; FIG. 2): slightly more resistant
- bacterial survival in presence of butanol compared with host strain with no omrA gene ([3]; FIG. 3, varying levels of butanol): increased bacterial survival significantly
